# According to paper PMC6015222, “Targeting Phosphopeptide Recognition by the Human BRCA1 Tandem BRCT Domain to Interrupt BRCA1-Dependent Signaling” (Cell Chemical Biology, 2018):
# Legend:
# [1] = target: T1, BRCA1 tBRCT / BACH1 unimolecular FRET biosensor (Homo sapiens, UniProt P38398); assay: Unimolecular FRET biosensor assay in HEK293 cells (sensitized emission, acceptor photobleaching); type: cell-based; conditions: 100 μM, 24 hr, 16 Gy
# T1 construct: the BRCA1 tBRCT domain (aa 1643-1862); expressed in transfected cells
# T1 sequence (P38398 1643-1862): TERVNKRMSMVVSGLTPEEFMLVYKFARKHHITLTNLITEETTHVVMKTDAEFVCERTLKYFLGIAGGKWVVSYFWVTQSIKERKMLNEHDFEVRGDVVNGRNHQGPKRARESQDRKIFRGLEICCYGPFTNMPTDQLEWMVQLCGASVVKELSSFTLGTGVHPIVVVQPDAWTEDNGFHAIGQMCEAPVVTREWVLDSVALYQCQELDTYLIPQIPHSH
# Method: HEK293 cells expressing the stably integrated FRET sensor in a tetracycline-inducible system were used. 3.5x10^5 cells/35mm dish were seeded in Matrigel coated plates and expression was induced using doxycycline (1μg/ml) for 48 h. Cells were incubated with compounds for 24 h in serum containing media at 100μM final concentration with 0.5% DMSO. Where indicated, mCherry-BRCA1 tBRCT constructs were transiently transfected in a 4.5:1 ratio of Fugene:DNA and incubated in serum-containing media for 24 h (Fugene HD transfection reagent, Promega). Two h after 16 Gy IR, cells were washed in 1x PBS (pH 7.4) and fixed in 4% PFA at room temperature (RT) for 10’. Cells were mounted with Mowiol (without anti-fade) before imaging. The following excitation and emission wavelengths were used: Ex 402nm / Em 457nm for Tag-BFP; Ex 483nm / Em 506nm for Tag-GFP2 and Ex 594nm / Em 610nm for mCherry. […] Images acquired as noted below were quantified using HCS studio 2.0 (Thermo Fisher Scientific) to define nuclear morphology and average nuclear intensities.
# For sensitized emission FRET measurements, images were acquired using a Zeiss epifluorescence microscope with Apotome using a 40x oil objective. […] Corrections for the extent of spectral cross-talk were calculated and applied as follows ([Müller et al., 2013]). […]
# TOPBP1 foci = assay: Radiation-induced TOPBP1 foci, U2OS cells; type: cell-based; conditions: 100 μM added 6 h after irradiation
# RPA32 foci = assay: Radiation-induced nuclear RPA32 foci; type: cell-based, human; conditions: 100 μM, 16 Gy, as Figure 5A
# Method: HEK293 cells stably harboring plasmids for Tet-inducible expression of tBRCT domains were seeded at 30,000 cells/well on Matrigel-coated 96-well plates, and treated as indicated. Cells were fixed in 2.5% PFA, for 20’ at RT and incubated in 1x PBS with 10% FBS plus 0.5% TritonX-100 for 1 h for blocking and permeabilization. Primary antibody staining was performed at the indicated dilutions in PBST-BSA buffer (0.7mg/ml BSA, 0.05% Tween-20 in 1XPBS) for 1h at RT. Cells were then extensively washed in PBST-BSA buffer and stained with goat-anti-mouse Alexa 488 secondary antibody (Invitrogen), at 1:1000 dilution along with 2.5μg/ml DAPI for nuclear staining. […] Images were acquired on a high-content imaging platform (Cellomics ArrayScan VTI HCS Reader (Thermo Fisher Scientific)) using a 40x objective. On average ∼800 fields from 6-well replicates, containing a total of ∼10-20K cells were imaged per treatment group and quantified using image analysis software (in-house algorithms using MatLab and commercially available HCS studio 2.0 from Thermo Fisher Scientific). […] Cut-off values for foci number per cell specifying the maximal difference between control and irradiated samples were determined to calculate the percentage of cells positive for radiation-induced foci. […]
# cells = assay: Cellular effects of Bractoppin, summary over the cell assays; type: cell-based
compound,measurement,setting,value
"O=C(c1ccc2nc(-c3ccccc3)[nH]c2c1)N1CCN(Cc2ccccc2F)CC1 [Bractoppin, (4-(2-fluorobenzyl)piperazin-1-yl) (2-phenyl-1H-benzo[d]imidazol-6-yl) methanone]",effect on FRET efficiency of the biosensor,[1],inhibits FRET
same,effect on radiation-induced recruitment of TOPBP1,TOPBP1 foci,little effect
same,effect on RPA32 accumulation,RPA32 foci,little effect
same,concentration at which cellular effects are elicited,cells,10 to 100 µM
